# Reference: patent publication US7351744B2, “Naphthalene derivatives as termite repellents and toxicants” (Board of Supervisors of Louisiana State University and …, priority 2003, dated 2008)
# Assays:
# [1] = test system: C. formosanus workers; assay: whole plant or invertebrate; format: in vivo, Coptotermes formosanus; conditions: for Consumption (mg) day 8: wood slice
# Protocol: Three-chambered transparent plastic containers as described in Example 4 were used to test the effectiveness of 2′-acetonaphthone as a barrier to prevent termites from reaching a food source. Each tested concentration of 2′-acetonaphthone was dissolved in 60 ml ethanol and mixed with 600 g of sand. For a control, 600 g of sand was mixed with 60 ml ethanol. The untreated and treated sand were placed in holding containers, and kept overnight at ambient conditions for solvent evaporation. In each container, sand was mixed with 60 ml DDH2O. Into the middle chamber, 110 g of either treated or untreated sand was gently added, packed, and leveled to clearly see tunnels. Six replicates were used for each concentration and control. Weighed balsa wood slices (0.159 cm×3.5 cm×6.0 cm, Ochroma lagopus Swartz) were placed in one of the two lateral chambers and wetted with 1 ml DDH2O. Into each container, 200 workers and 20 soldiers were released in the opposite lateral chamber from the wood slice. Termites were thus required to cross through the treated sand in the middle chamber to reach the food source. Containers were covered, and incubated in complete darkness at 27.4° C. and 70% RH. If necessary, 1 ml DDH2O was added to the sand and wood slice twice a week to maintain proper moisture. Three separate experiments were conducted using the same technique with different colonies.
# In the first experiment, termites from Colony BS were used, and tested concentrations of 2′-acetonaphthone were 0.0, 16.67, 33.33, 50.0, 100.0, and 200.0 mg/kg sand. The number of dead workers was recorded daily to day 6. On day 6, the number of living workers in the releasing chamber was also recorded, and the bottoms of the three-chambered containers were scanned (ScanJet 4C, Hewlett-Packard, Palo Alto, Calif.). The images were printed in actual size, and the tunnel areas measured. After 8 days, the total number of living workers in each container was recorded; and the wood slices were gently cleaned using deionized water with a small brush. The slices were then oven dried at 60° C. for 3 h and reweighed. The difference in weight of the wood slices from the initial weighing was used to calculate food consumption.
# The experiment was repeated a third time to further test for molting failures. The protocol was described as above. Five concentrations of 2′-acetonaphthone (4.15, 8.33, 16.67, 33.33, and 66.67 mg/kg sand) were evaluated using termites from colony WB. Tunnels were scanned, printed, and areas measured on days 2, 3, 4 and 7. Percent survival and food consumption were calculated on day 12 as previously described. To evaluate the effect of 2′-acetonaphthone treatments on worker survival, tunnel area and food consumption, an analysis of variance was conducted followed by a least significant difference procedure.
# [2] = test system: C. formosanus workers; assay: Repellency, choice of treated and untreated filter paper in three-chambered containers; format: in vivo, Coptotermes formosanus; conditions: preliminary study; 23 μg/cm^2
# [3] = Coptotermes formosanus, 168 h, read-out: Mortality (%), day 7
compound,measurement,setting,value
CC(=O)c1ccc2ccccc2c1 [2′-acetonaphthone],Food consumption (mg) day 12,"[1]; 4.16 mg kg^−1, colony E",27.1 ± 2.3 b mg
same,"Molting failure (%), day 7","[1]; 4.16 mg kg^−1, colony E",26.7 ± 6.0 a %
same,Survival (%) day 12,"[1]; 4.16 mg kg^−1, colony E",34.2 ± 6.0 a %
same,"Termite (%), workers counted in the releasing chambers on day 5","[1]; 4.16 mg kg^−1, colony E",34.9 ± 2.8 b %
same,"Tunnel area (cm^2), day 12","[1]; 4.16 mg kg^−1, colony E",22.8 ± 4.4 a cm^2
same,Food consumption (mg) day 12,"[1]; 4.16 mg/kg, colony WB",35.0 ± 13.8 a mg
same,Survival (%) day 12,"[1]; 4.16 mg/kg, colony WB",55.8 ± 7.3 a %
same,"Tunnel area (cm^2), day 2","[1]; 4.16 mg/kg, colony WB",3.4 ± 1.6 a cm^2
same,"Tunnel area (cm^2), day 3","[1]; 4.16 mg/kg, colony WB",6.1 ± 2.6 ab cm^2
same,"Tunnel area (cm^2), day 4","[1]; 4.16 mg/kg, colony WB",8.0 ± 2.7 ab cm^2
same,"Tunnel area (cm^2), day 7","[1]; 4.16 mg/kg, colony WB",17.0 ± 4.5 a cm^2
same,Food consumption (mg) day 12,"[1]; 8.33 mg kg^−1, colony E",0.0 ± 0.0 c mg
same,"Molting failure (%), day 7","[1]; 8.33 mg kg^−1, colony E",11.5 ± 1.9 b %
same,Survival (%) day 12,"[1]; 8.33 mg kg^−1, colony E",4.2 ± 1.9 b %
same,"Termite (%), workers counted in the releasing chambers on day 5","[1]; 8.33 mg kg^−1, colony E",77.9 ± 4.5 a %
same,"Tunnel area (cm^2), day 12","[1]; 8.33 mg kg^−1, colony E",2.8 ± 1.9 b cm^2
same,Food consumption (mg) day 12,"[1]; 8.33 mg/kg, colony WB",8.3 ± 3.1 b mg
same,Survival (%) day 12,"[1]; 8.33 mg/kg, colony WB",7.4 ± 3.3 b %
same,"Tunnel area (cm^2), day 2","[1]; 8.33 mg/kg, colony WB",2.3 ± 1.3 a cm^2
same,"Tunnel area (cm^2), day 3","[1]; 8.33 mg/kg, colony WB",3.1 ± 1.2 bc cm^2
same,"Tunnel area (cm^2), day 4","[1]; 8.33 mg/kg, colony WB",3.5 ± 1.3 bc cm^2
same,"Tunnel area (cm^2), day 7","[1]; 8.33 mg/kg, colony WB",4.5 ± 1.8 b cm^2
same,Food consumption (mg) day 12,"[1]; 16.67 mg kg^−1, colony E",0.0 ± 0.0 c mg
same,"Molting failure (%), day 7","[1]; 16.67 mg kg^−1, colony E",13.9 ± 1.2 b %
same,Survival (%) day 12,"[1]; 16.67 mg kg^−1, colony E",0.0 ± 0.0 b %
same,"Termite (%), workers counted in the releasing chambers on day 5","[1]; 16.67 mg kg^−1, colony E",78.6 ± 4.0 a %
same,"Tunnel area (cm^2), day 12","[1]; 16.67 mg kg^−1, colony E",0.0 ± 0.0 b cm^2
same,Survival (%) day 8,"[1]; 16.67 mg/kg sand, colony BS",6.8 ± 6.7 b %
same,"Termite (%) day 6, percent workers in the releasing chambers","[1]; 16.67 mg/kg sand, colony BS",39.8 ± 8.8 b %
same,Tunnel area (cm^2) day 6,"[1]; 16.67 mg/kg sand, colony BS",1.4 ± 0.9 b cm^2
same,Consumption (mg) day 8,"[1]; 16.67 mg/kg sand, colony BS",3.3 ± 3.3 b mg
same,Food consumption (mg) day 12,"[1]; 16.67 mg/kg, colony WB",3.3 ± 2.1 b mg
same,Survival (%) day 12,"[1]; 16.67 mg/kg, colony WB",0.0 ± 0.0 b %
same,"Tunnel area (cm^2), day 2","[1]; 16.67 mg/kg, colony WB",0.9 ± 0.4 a cm^2
same,"Tunnel area (cm^2), day 3","[1]; 16.67 mg/kg, colony WB",1.6 ± 1.0 bc cm^2
same,"Tunnel area (cm^2), day 4","[1]; 16.67 mg/kg, colony WB",1.7 ± 1.0 c cm^2
same,"Tunnel area (cm^2), day 7","[1]; 16.67 mg/kg, colony WB",0.7 ± 0.5 b cm^2
same,Food consumption (mg) day 12,"[1]; 33.33 mg kg^−1, colony E",0.0 ± 0.0 c mg
same,"Molting failure (%), day 7","[1]; 33.33 mg kg^−1, colony E",15.9 ± 2.4 b %
same,Survival (%) day 12,"[1]; 33.33 mg kg^−1, colony E",0.0 ± 0.0 b %
same,"Termite (%), workers counted in the releasing chambers on day 5","[1]; 33.33 mg kg^−1, colony E",79.6 ± 2.2 a %
same,"Tunnel area (cm^2), day 12","[1]; 33.33 mg kg^−1, colony E",0.0 ± 0.0 b cm^2
same,Survival (%) day 8,"[1]; 33.33 mg/kg sand, colony BS",19.1 ± 9.1 b %
same,"Termite (%) day 6, percent workers in the releasing chambers","[1]; 33.33 mg/kg sand, colony BS",39.8 ± 10.2 b %
same,Tunnel area (cm^2) day 6,"[1]; 33.33 mg/kg sand, colony BS",5.5 ± 2.1 b cm^2
same,Consumption (mg) day 8,"[1]; 33.33 mg/kg sand, colony BS",11.7 ± 8.2 b mg
same,Food consumption (mg) day 12,"[1]; 33.33 mg/kg, colony WB",3.3 ± 2.1 b mg
same,Survival (%) day 12,"[1]; 33.33 mg/kg, colony WB",0.1 ± 0.1 b %
same,"Tunnel area (cm^2), day 2","[1]; 33.33 mg/kg, colony WB",0.0 ± 0.0 a cm^2
same,"Tunnel area (cm^2), day 3","[1]; 33.33 mg/kg, colony WB",0.0 ± 0.0 c cm^2
same,"Tunnel area (cm^2), day 4","[1]; 33.33 mg/kg, colony WB",0.0 ± 0.0 c cm^2
same,"Tunnel area (cm^2), day 7","[1]; 33.33 mg/kg, colony WB",0.0 ± 0.0 b cm^2
same,Survival (%) day 8,"[1]; 50.0 mg/kg sand, colony BS",1.8 ± 1.8 b %
same,"Termite (%) day 6, percent workers in the releasing chambers","[1]; 50.0 mg/kg sand, colony BS",31.2 ± 2.8 b %
same,Tunnel area (cm^2) day 6,"[1]; 50.0 mg/kg sand, colony BS",2.5 ± 1.1 b cm^2
same,Consumption (mg) day 8,"[1]; 50.0 mg/kg sand, colony BS",0.0 ± 0.0 b mg
same,Food consumption (mg) day 12,"[1]; 66.67 mg/kg, colony WB",4.2 ± 3.3 b mg
same,Survival (%) day 12,"[1]; 66.67 mg/kg, colony WB",0.0 ± 0.0 b %
same,"Tunnel area (cm^2), day 2","[1]; 66.67 mg/kg, colony WB",0.4 ± 0.2 a cm^2
same,"Tunnel area (cm^2), day 3","[1]; 66.67 mg/kg, colony WB",0.4 ± 0.2 c cm^2
same,"Tunnel area (cm^2), day 4","[1]; 66.67 mg/kg, colony WB",0.4 ± 0.2 c cm^2
same,"Tunnel area (cm^2), day 7","[1]; 66.67 mg/kg, colony WB",0.4 ± 0.2 b cm^2
same,Survival (%) day 8,"[1]; 100.0 mg/kg sand, colony BS",0.0 ± 0.0 b %
same,"Termite (%) day 6, percent workers in the releasing chambers","[1]; 100.0 mg/kg sand, colony BS",79.8 ± 8.7 a %
same,Tunnel area (cm^2) day 6,"[1]; 100.0 mg/kg sand, colony BS",3.3 ± 1.6 b cm^2
same,Consumption (mg) day 8,"[1]; 100.0 mg/kg sand, colony BS",0.0 ± 0.0 b mg
same,Survival (%) day 8,"[1]; 200.0 mg/kg sand, colony BS",1.3 ± 1.3 b %
same,"Termite (%) day 6, percent workers in the releasing chambers","[1]; 200.0 mg/kg sand, colony BS",81.8 ± 6.0 a %
same,Tunnel area (cm^2) day 6,"[1]; 200.0 mg/kg sand, colony BS",0.0 ± 0.0 b cm^2
same,Consumption (mg) day 8,"[1]; 200.0 mg/kg sand, colony BS",0.0 ± 0.0 b mg
same,mortality at 4.16 mg/kg,[1]; [3],35.9 ± 4.4%
same,mortality at 8.33 mg/kg,[1]; [3],71.8 ± 8.8%
same,mortality at 16.67 mg/kg,[1]; [3],99.5 ± 0.5%
same,mortality at 33.33 mg/kg,[1]; [3],100%
same,Food consumption,"[1]; all treatments 16.67 to 200 mg/kg, control 98.3 mg, day 8",≤ 11.7 mg
same,concentration giving significant reduction in tunneling and feeding activity,[1]; as low as,8 mg/kg sand
same,concentration at which no food was consumed,"[1]; colony BS, day 8",≥ 50 mg/kg
same,concentration at which no termite reached the feeding chamber,[1]; colony E,> 8.16 mg/kg
same,"concentration forming an effective barrier (toxic, inhibits tunneling and feeding)",[1]; treated sand,≥ 8.33 mg/kg
same,feeding activity after 8 days exposure,[2],negligible
same,worker distribution,[2],workers avoided the treated side
